The record followed here is ChEMBL document CHEMBL1156884, “Improvement of physiochemical properties of the tetrahydroazepinoindole series of farnesoid X receptor (FXR) agonists: beneficial modulation of lipids in primates” (J Med Chem, 2010).

In brackets after ≈: the same amount, converted by molar mass.

Data set [1] in a line: Tmax in Sprague-Dawley rat 3 mg/kg, po. The following applies: in vivo. Also noted: dose 3 mg/kg, route oral. The data set is classed as ADME, organism-based.
Data set [2] in a line: Tmax in C57 mouse at 3 mg/kg, po. The data set is classed as ADME, organism-based. On the set-up: dose 3 mg/kg, route oral. To be noted: in vivo.
The nature of data set [3]: Oral bioavailability in Sprague-Dawley rat 3 mg/kg. Type of data set: ADME, organism-based. To be noted: in vivo.
The nature of data set [4]: AUC (0 to infinity) in C57 mouse at 3 mg/kg, iv. Type of data set: ADME, organism-based. On the set-up: time infinity, dose 3 mg/kg, route intravenous. The following applies: plasma.
A short description of data set [5]: Cmax in C57 mouse at 3 mg/kg, po. The data set is classed as ADME, organism-based. Also noted: dose 3 mg/kg, route oral. To be noted: in vivo.
Data set [6] can be described thus: AUC (0 to infinity) in Sprague-Dawley rat at 3 mg/kg, po. The data set is classed as ADME, organism-based. Also noted: time infinity, dose 3 mg/kg, route oral. To be noted: plasma.
Data set [7] is described as follows: AUC (0 to infinity) in C57 mouse at 3 mg/kg, po. Type of data set: ADME, organism-based. The following applies: plasma. Also noted: time infinity, dose 3 mg/kg, route oral.
Data set [8] in a line: Equilibrium solubility in 0.5% methylcellulose/2% Tween-80 in water. The data set is classed as physicochemical.
A short description of data set [9]: Cmax in Sprague-Dawley rat at 3 mg/kg, po. The data set is classed as ADME, organism-based. Also noted: dose 3 mg/kg, route oral. The following applies: in vivo.
Data set [10] can be described thus: (§1) AUC (0 to infinity) in Sprague-Dawley rat at 3 mg/kg, iv. Type of data set: ADME, organism-based, Plasma. On the set-up: time infinity, dose 3 mg/kg, route intravenous. To be noted: Sprague-Dawley, plasma.
Data set [11] can be described thus: Tmax in C57 mouse at 30 mg/kg, po. The data set is classed as ADME, organism-based. Also noted: dose 30 mg/kg, route oral. The following applies: in vivo.
The nature of data set [12]: Tmax in Sprague-Dawley rat 30 mg/kg, po. Also noted: dose 30 mg/kg, route oral. The data set is classed as ADME, organism-based. The following applies: in vivo.
Data set [13] in a line: Oral bioavailability in C57 mouse at 30 mg/kg. To be noted: in vivo. The data set is classed as ADME, organism-based.
Data set [14] is described as follows: Cmax in Sprague-Dawley rat at 30 mg/kg, po. Type of data set: ADME, organism-based. Also noted: dose 30 mg/kg, route oral. The following applies: in vivo.
The subject of data set [15] is Rattus norvegicus. Description: AUC (0 to infinity) in Sprague-Dawley rat at 30 mg/kg, po. Type of data set: ADME, organism-based, Plasma. Also noted: time infinity, dose 30 mg/kg, route oral. The following applies: in vivo.
A short description of data set [16]: AUC (0 to infinity) in C57 mouse at 30 mg/kg, po. On the set-up: time infinity, dose 30 mg/kg, route oral. The data set is classed as ADME, organism-based. The following applies: plasma.
A short description of data set [17]: Cmax in C57 mouse at 30 mg/kg, po. Type of data set: ADME, organism-based. On the set-up: dose 30 mg/kg, route oral. The following applies: in vivo.
In data set [18] the test system is Rattus norvegicus. As to the kind of experiment: Oral bioavailability in Sprague-Dawley rat at 30 mg/kg. The data set is classed as ADME, organism-based. To be noted: in vivo.
Data set [19] has as its system Rattus norvegicus. Described as §1. The data set is classed as ADME, organism-based, Plasma. Also noted: time infinity, dose 3 mg/kg, route intravenous. The following applies: in vivo.

With `CC(C)OC(=O)C1=CN(C(=O)c2ccc(OCCCN3CCOCC3)cc2)CC(C)(C)c2c1[nH]c1cc(F)ccc21`, the Tmax was determined as 2 h in [1] and 1 h in [2]. In data set [3], this compound came in with a bioavailability of 38%. Further, the AUC(0-inf) in data set [4] came to 1720 ng·h/mL; in data set [6], 361 ng·h/mL; in [7] it was 370 ng·h/mL; in data set [10], 960 ng·h/mL. In addition, the Cmax in [5] was determined as 81 ng/mL; in data set [9], 68 ng/mL. In data set [8], this compound came in with a thermodynamic solubility of 250 µg/mL (≈ 444 µM). `CC(C)OC(=O)C1=CN(C(=O)c2ccc(OCCCN3CCOCC3)cc2)CC(C)(C)c2c1[nH]c1cc(F)ccc21.Cl` displayed a thermodynamic solubility in data set [8] of 5920 µg/mL. `CC(C)OC(=O)C1=CN(C(=O)c2ccc(OCCN3CCOCC3)cc2)CC(C)(C)c2c1[nH]c1cc(F)ccc21.Cl`: the thermodynamic solubility in data set [8] was > 6000 µg/mL. Same read-out and setting: the result for `CC(C)OC(=O)C1=CN(C(=O)c2ccc(OCCCN3CCN(C)CC3)cc2)CC(C)(C)c2c1[nH]c1ccccc21` reads 1140 µg/mL (≈ 2040 µM); that for `CC(C)OC(=O)C1=CN(C(=O)c2ccc(OCCN3CCCC3)cc2)CC(C)(C)c2c1[nH]c1ccccc21`, 24 µg/mL (≈ 46.5 µM). As for `CC(C)OC(=O)C1=CN(C(=O)c2ccc(OCCN3CCOCC3)cc2)CC(C)(C)c2c1[nH]c1cc(F)ccc21`, the Tmax came out at 1 h in data set [11] and 1.7 h in [12]. Further, the bioavailability in data set [13] worked out at 53%. Further, the results for the AUC(0-inf) in data set [4] and in [16] were 1260 ng·h/mL and 6700 ng·h/mL, respectively. In addition, the figures for the Cmax in [14] and in data set [17] were 35 ng/mL and 1130 ng/mL, respectively. In addition, the AUC in the data set on Rattus norvegicus [15] was 193 ng·h/mL; in the data set on Rattus norvegicus [19], 781 ng·h/mL. This compound also showed a thermodynamic solubility in data set [8] of 280 µg/mL (≈ 509 µM). In the data set with Rattus norvegicus [18], this compound returned an F of 25%. On to `CC(C)OC(=O)C1=CN(C(=O)c2ccc(OCCCN3CCOCC3)cc2)CC(C)(C)c2c1[nH]c1ccccc21`, for which the solubility (thermodynamic) in data set [8] worked out at 200 µg/mL (≈ 367 µM). On the same count and under the same terms, then `CC(C)OC(=O)C1=CN(C(=O)c2cccc(OCCCN3CCOCC3)c2)CC(C)(C)c2c1[nH]c1ccccc21`, with 118 µg/mL (≈ 216 µM); and `CC(C)OC(=O)C1=CN(C(=O)c2cccc(OCCN3CCCCC3)c2)CC(C)(C)c2c1[nH]c1ccccc21`, with 111 µg/mL (≈ 210 µM). Same read-out and setting: the result for `CC(C)OC(=O)C1=CN(C(=O)c2ccc(OCCCN3CCCC3)cc2)CC(C)(C)c2c1[nH]c1ccccc21` reads 2330 µg/mL (≈ 4400 µM); that for `CC(C)OC(=O)C1=CN(C(=O)c2ccc(OCCCN3CCCCC3)cc2)CC(C)(C)c2c1[nH]c1ccccc21`, 1220 µg/mL (≈ 2240 µM). The same measure, in the same setting: then `CC(C)OC(=O)C1=CN(C(=O)c2cccc(OCCN(C)C)c2)CC(C)(C)c2c1[nH]c1ccccc21`, with 536 µg/mL (≈ 1090 µM).

Take `CC(C)OC(=O)C1=CN(C(=O)c2cccc(OCCCN3CCN(C)CC3)c2)CC(C)(C)c2c1[nH]c1ccccc21`: in data set [8], the thermodynamic solubility amounted to 1740 µg/mL (≈ 3110 µM).

`CC(C)OC(=O)C1=CN(C(=O)c2ccc(OCCN3CCOCC3)cc2)CC(C)(C)c2c1[nH]c1ccccc21`: the solubility (thermodynamic) in [8] was 80 µg/mL (≈ 150 µM). The compound `CC(C)OC(=O)C1=CN(C(=O)c2ccc(OCCN3CCN(C)CC3)cc2)CC(C)(C)c2c1[nH]c1ccccc21` yielded a thermodynamic solubility in [8] of 82 µg/mL (≈ 151 µM).

In [8], `CC(C)OC(=O)C1=CN(C(=O)c2ccc(CN3CCOCC3)cc2)CC(C)(C)c2c1[nH]c1ccccc21` registered a thermodynamic solubility of 245 µg/mL (≈ 488 µM).

In turn, `CC(C)OC(=O)C1=CN(C(=O)c2ccc(OCCCN(C)C)cc2)CC(C)(C)c2c1[nH]c1ccccc21` displayed a solubility (thermodynamic) in data set [8] of 2470 µg/mL (≈ 4900 µM).

Turning to `CC(C)OC(=O)C1=CN(C(=O)c2ccc(CN3CCOCC3)cc2)CC(C)(C)c2c1[nH]c1cc(F)ccc21`, the solubility (thermodynamic) in [8] worked out at 380 µg/mL (≈ 731 µM).

In data set [8], `CC(C)OC(=O)C1=CN(C(=O)c2ccc(OCCN3CCCCC3)cc2)CC(C)(C)c2c1[nH]c1ccccc21` showed a solubility (thermodynamic) of 80 µg/mL (≈ 151 µM).

`CC(C)OC(=O)C1=CN(C(=O)c2cccc(OCCCN3CCCCC3)c2)CC(C)(C)c2c1[nH]c1ccccc21` returned a solubility (thermodynamic) in data set [8] of 1040 µg/mL (≈ 1920 µM). Same read-out and setting: the result for `CC(C)OC(=O)C1=CN(C(=O)c2ccc(OCCN(C)C)cc2)CC(C)(C)c2c1[nH]c1ccccc21` reads 17 µg/mL (≈ 34.7 µM); that for `CC(C)OC(=O)C1=CN(C(=O)c2cccc(OCCN3CCOCC3)c2)CC(C)(C)c2c1[nH]c1ccccc21`, 155 µg/mL (≈ 292 µM).
